Source: US20070197424A1, “Glatiramer acetate for use as an immuno-modulatory agent” (priority 2003, published 2007)
Entries after “also recorded” stand apart in the source; their conditions may differ.

Experiments:
colitis-induced mice = assay: TNBS-colitis in mice: macroscopic and microscopic colitis score; type: in vivo, mouse; conditions: treated vs control colitis-induced mice
Description: Each group includes 10 male animals.
(§1) Following Ketamine/Xylazine anesthesia, animals were sacrificed, and serum, colons are harvested at day 12. Blood samples are obtained and frozen at −20° C. until assayed for cytokine levels (IL2, IL4, IFNg, IL10 and TGFb). Splenocyte subpopulations are analyzed by FACS for CD4 and CD8, NK markers, and killer inhibitory and activation receptors. Colons are assessed for inflammatory severity.
Colitis induction as inflammatory bowel disease animal model: TNBS-colitis was induced by rectal instillation of TNBS, 1 mg/mouse, dissolved in 100 μl of 50% ethanol as described [Trop S, Samsonov D, Gotsman I, Alper R, Diment J and Ilan Y (1999) Hepatology 29: 746-755].
(§2) Liver and colon histology: The posterior one-third of the liver, the rectosigmoid colon were fixed in 10% formalin for 24 hours and then paraffin-embedded in an automated tissue processor. […] sections were cut from each animal specimen. Hematoxylin and eosin (H&E) staining was performed for each animal section.

dendritic cells = conditions: through modulation of dendritic cells; cited from earlier work
serum cytokines = assay: Serum cytokine levels in colitis-induced mice; type: in vivo, mouse; conditions: vs colitis-induced untreated group
Description: as §1

[1] = tested on: relapsing-remitting multiple sclerosis; conditions: cited from earlier work
splenocytes [2] = assay: FACS analysis of splenocytes in CCl4-fibrosis induced mice; type: in vivo, mouse; conditions: for spleen CD4:CD8 ratio: vs CCl4-induced fibrosis untreated group, FIG. 7; for spleen total number of NK cells: vs untreated fibrotic and naive groups, FIG. 8
Description: (§3) Hepatic fibrosis was induced by IP CCl4 administration for 6 weeks in 8 week-old male wild-type C57Bl/6 mice. Within the last 2 weeks animals were also treated with either Copaxone 200 microgram/day I.P (Group A), Linomycin given by drinking water 1 mg/ml (Group B) or normal saline (group C), and were compared to naïve mice (Group D). Eight animals were included in each group. Hepatic fibrosis was evaluated by Ishak Knodell score [Knodell, R. G. et al., Hepatology 1981; 1(5):431-5], hydroxyproline and by analyzing 36 Sirius Red stained histological liver sections per animal with Bioquant® morphometry system. Splenocytes were isolated for FACS analysis from all animal groups. The correlation between hepatic fibrosis and CD4, CD8, NK cells, iKIR and aKIR expression on splenocytes was assessed.
(§4) Splenocyte isolation: Spleens were harvested at the time of sacrifice and fractionated through a 70-μm nylon cell strainer. After RBC lysis, splenocytes were washed, suspended in RPMI 1640 medium and stored at 4° C. until FACS analysis.
(§5) Fluorescent-activated cell sorting analysis (FACS): splenocytes are analysed by direct immunofluorescence reactivity with a series of antibodies (Abs) using standard techniques on a Coulter flow cytometer (BECTON DICKINSON, USA). Briefly, 3×10^5 spleen cells are incubated for 30 minutes at 4° C. with Abs conjugated to fluorescein isothiocyanate (FITC), phycoerythrin (PE) or allophycocyanin (APC), washed three times, and resuspended in fixative solution with 2% paraformaldehyde for analysis. Antibodies used for staining splenocytes are monoclonal anti-mouse CD4, CD8 conjugated by PE and FITC respectively (BD Biosciences). For staining natural killer (NK) cells APC-conjugated rat anti-mouse CD49b/Pan-NK cells monoclonal antibody which identifies the majority of NK cells is used. For killer inhibitory receptors (iKIR) monoclonal mouse anti-mouse Ly-49C and Ly-49I conjugated by PE are used. For the killer activating receptor (aKIR) FITC-conjugated rat anti-mouse LY-49D monoclonal antibody were used. To defined the role of T regulatory cells we used the anti CD25 monoclonal antibodies. To identify lymphocytes staining with peridinin chlorophyll-α protein (Per-CP)-conjugated rat anti-mouse CD45 (BD Biosciences) was used. Lymphocyte subsets are presented as percentage of the CD45+ cells.

[3] = tested on: graft-specific T cell lines; conditions: in vitro with stimulating allogeneic cells; cited from earlier work
skin and thyroid grafts = conditions: cited from earlier work
intrahepatic lymphocytes = assay: FACS analysis of intrahepatic lymphocytes in CCl4-fibrosis induced mice; type: in vivo, mouse
splenocytes [4] = assay: FACS analysis of spleen cell populations in colitis-induced mice; type: in vivo, mouse
Description: as §1, §4, §5

[5] = tested on: CCl4-fibrosis induced mice; assay: CCl4-induced hepatic fibrosis in mice: liver injury and fibrosis assessment; type: in vivo, mouse; conditions: for liver injury (Ishak injury score): CCl4 fibrosis-induced mice, treated vs untreated; for hepatic fibrosis (Ishak liver fibrosis scoring, Bioquant analysis): compared to the CCl4 fibrosis-induced untreated group, Copaxone 200 microgram/day I.P. or Linomycin 1 mg/ml drinking water, last 2 weeks of 6 weeks CCl4
Description: as §3
Hepatic fibrosis animal model: Hepatic fibrosis was induced by IP CCl4 (10% as diluted with corn oil) administration 5 microliter/g body weight; for 4-6 weeks in 8 week-old male mice.
as §2
Liver sections (15 μm) were stained in 0.1% Sirius Red F3B in saturated picric acid (both from Sigma). Additionally, alpha smooth muscle actin immunohistochemistry was performed using the DAKO kit (CAT# U7033 EPOS, Monoclonal) according to the manufacturer's instructions.
Hepatic Fibrosis quantitation: Relative fibrosis area (expressed as a % of total liver area) was assessed by analyzing 36 Sirius red-stained liver sections per animal. Each field was acquired at 10× magnification and then analyzed using a computerized Bioquant® morphometry system. To evaluate the relative fibrosis area, the measured collagen area was divided by the net field area and then multiplied by 100. Subtraction of vascular lumenal area from the total field area yielded the final calculation of the net fibrosis area.
Alpha smooth muscle actin immunoblot: Immunoblot analysis of Alpha-SMA in liver extracts is performed as previously described [de Waal Malefyt, R., et al., J. Exp. Med. 1991; 174:915-924] with modifications. Whole-liver protein extracts were prepared in liver homogenization buffer (50 mmol/L Tris-HCl [pH 7.6], 0.25% Triton-X 100, 0.15 M NaCl, 10 mM CaCl2 and complete mini EDTA-free protease inhibitor cocktail (Roche Diagnostics, Mannheim, Germany). Then proteins (30 μg per lane) were resolved on a 10% SDS-polyacrylamide gel under reducing conditions. For immunoblotting, proteins were transferred to a Protran membrane and incubated overnight at 4° C. in a blocking buffer containing 5% skim milk. Anti-SMA mouse monoclonal antibody (DAKO, cat# M0851) and peroxidase-conjugated goat anti-mouse IgG (P.A.R.I.S., Compiègne, France) and enhanced chemiluminescence were used.

For glatiramer acetate [Copaxone], the “macroscopic colitis score (tissue injury)” value (colitis-induced mice; FIG. 13a) is listed as “prominent reduction”, the “microscopic colitis score (tissue injury)” value (colitis-induced mice; FIG. 13b, p<0.03) is listed as “prominent reduction” and the IL-10 production (dendritic cells) is listed as “increase”. For the same substance, the “Th2 CD4 cell development” value (dendritic cells) was “promote”, the “serum IL-10 level” value (serum cytokines; p<0.002, FIG. 18) was “significantly reduced” and the “serum IL-4 level” value (serum cytokines; p<0.004, FIG. 18) was “significantly reduced”. The “serum IFN-γ level” value (serum cytokines; p<0.006, FIG. 18) was “significantly reduced”, the “disease activity and burden of disease (MRI measures)” value ([1]; European/Canadian study) was “significantly decrease” and the tolerability ([1]; human, in vivo) was “generally well tolerated”. For the same substance, the overall disability status ([1]; patients with RRMS) was “significantly improved”, the “efficacy by relapse rate, proportion of relapse-free patients, number of gadolinium-enhancing lesions” value ([1]; subcutaneous 20 mg/day, patients with RRMS) was “significantly effective” and the “spleen CD4 cells” value (splenocytes [2]; between fibrotic groups A, B and C, FIG. 6) was “no significant changes”. For the same substance, the “spleen CD8 cells” value (splenocytes [2]; compared to group C (p<0.05) or D (p<0.005), FIG. 6) was “significantly decreased”, the “spleen NK aKIR:NK iKIR ratio” value (splenocytes [2]; compared to the naive group (group D), p<0.0001, FIG. 9) was “significant increase” and the “spleen NK aKIR:NK iKIR ratio” value (splenocytes [2]; compared to the untreated fibrotic group (group C), p<0.05, FIG. 9) was “significantly lower”. The “spleen CD4:CD8 ratio” value (splenocytes [2]) was “increased; also recorded: significantly elevated”, the “spleen CD4:CD8 ratio” value (splenocytes [2]; listed as A) was “significantly elevated” and the “spleen total number of NK cells” value (splenocytes [2]) was “elevated”. For the same substance, the “spleen total number of NK cells” value (splenocytes [2]; listed as A) was “increased number”, the “interleukin-2 and interferon-gamma secretion of graft-specific T cell lines” value [3] was “inhibited” and the “proliferation of graft-specific T cell lines” value [3] was “inhibited”. The skin graft survival (skin and thyroid grafts; skin grafting assay) was “prolonged”, the “functional deterioration of thyroid grafts” value (skin and thyroid grafts; thyroid grafting assay) was “inhibited” and the “intrahepatic CD4 cells” value (intrahepatic lymphocytes; between fibrotic groups A and C, FIG. 10) was “no significant changes”. The “intrahepatic NK cells number” value (intrahepatic lymphocytes; compared to fibrosis group C, p<0.0001, FIG. 12) was “significantly increased”, the “intrahepatic CD8 cells” value (intrahepatic lymphocytes; compared to group C, p<0.001, FIG. 10) was “significantly decreased” and the “intrahepatic CD4:CD8 ratio” value (intrahepatic lymphocytes; compared to group C, p<0.002, FIG. 11) was “significantly elevated”. For the same substance, the “CD4 IFN-γ secreting cells” value (splenocytes [4]; colitis induced-Copaxone treated group, p<0.02, FIG. 16) was “increase”, the “spleen CD4 cell number” value (splenocytes [4]; colitis induced-Copaxone treated group, p<0.03, FIG. 15) was “significant increase” and the “spleen CD8 cell populations” value (splenocytes [4]; colitis-induced mice, FIG. 15) was “unaffected”. For the same substance, the “antigen presenting cells (APC), spleen” value (splenocytes [4]; colitis-induced mice, FIG. 17) was “seemed to be reduced”, the “anti-fibrotic effect in the animal model” value ([5]; CCl4 fibrosis mouse model, overall conclusion) was “significant anti-fibrotic effect” and the “liver injury (Ishak injury score)” value ([5]; listed as Glatiramer acetate) was “reduced liver injury”. The “liver injury (Ishak injury score)” value ([5]; listed as copaxon) was “no significant difference”, the “liver injury (Ishak injury score)” value ([5]; listed as glatiramer acetate) was “significantly lower” and the “fibrosis severity, % of collagen in the analyzed area” value ([5]; after CCl4 fibrosis induction, p<0.0001, FIG. 4) was “significantly reduced”. For the same substance, the “hepatic fibrosis (Ishak liver fibrosis scoring, Bioquant analysis)” value [5] was “significant reduction of fibrosis”, the “hepatic fibrosis (Ishak liver fibrosis scoring, Bioquant analysis)” value ([5]; listed as glatiramer acetate) was “significantly lower” and the “alpha smooth muscle actin amounts (Western blot, liver)” value ([5]; vs CCl4 animal group, FIG. 5) was “significantly reduced”.
